Test results published in patent US12378247B2, “Mesylate salt of para-topolin, compositions containing said salt and use thereof” (USTAV EXPERIMENTALNI BOTANIKY AV CR, V. V. I., priority 2020, dated 2025).
pIC50: −log10 of the molar value. “And” between values parts separate entries of the source, which are not always exact repeats. Equal entries are not always repeated. Structures can show the parent of a compound that is named as a salt.

Experiments:
[1] = Calcein AM cytotoxicity assay, RPMI 8226; type: cell-based; settings: human, RPMI 8226 cells (multiple myeloma); RPMI 8226, 3-day Calcein-AM assay; read-out: Cytotoxic activity IC50
Source text: (§1) Because toxic compounds negatively influence metabolic processes of cells, many standard cytotoxicity assays are based on measurement of metabolisation rate of various artificial substrates. Resulting product is then quantified, for example, by means of spectrometry. The assays can be easily modified for use in 96-well plates. For evaluation of cytotoxicity of the […] of this invention, a microtiter assay based on quantification of metabolisation of Calcein AM was used. The assay is widely used in drug screening programs and in chemosensitivity testing. In live cells, Calcein AM is enzymatically hydrolysed and accumulation of the resulting calcein is manifested by green fluorescence. […]
(§2) Approximately 10,000 cells in 80 μL of medium were seeded into 96-well microtitre plates. […] The fluorescence of free calcein was then quantified using a Fluoroscan Ascent fluorometer (Microsystems), and the percentage of surviving cells in each well was calculated by dividing the OD obtained from each cell with exposed cells by the mean OD obtained from control wells×100%. […]

[2] = Aqueous solubility (saturated solution, HPLC); type: physicochemical; settings: thermodynamic from solid, water, read-out: concentration of saturated solution in water (aqueous solubility)
Protocol: Aqueous solubility was measured using the following protocol. Supersaturated solution of para-topolin mesylate salt in water was prepared. The solution was filtrated from visible undissolved particles of the salt to obtain saturated solution. Saturated solution was diluted 1:10 000 and measured using HPLC Alliance Waters 2690 with C18 Symmetry column with the diameter 2.1 mm and 150 mm length with a porosity of 5 μm. The sample was dissolved in the mobile phase (MeOH:HCOONH4-1:9). The sample was washed with a methanol gradient (10-90%, 35 min) at pH 4 and a flow rate of 0.3 ml/min. The absorbances of the components were detected in the UV region at 210-400 nm. The peak area was 2729231. Obtained peak area was compared to area peaks measured at certain concentration and the final concentration of saturated solution was determined.

[3] = Calcein AM cytotoxicity assay, CEM; type: cell-based; settings: human, CEM cells (T-lymphoblastic leukaemia), 3-day Calcein-AM assay, read-out: Cytotoxic activity IC50
Source text: as §1, §2

[4] = Stability study by XRPD diffraction; type: physicochemical; settings: 25° C., on light, after 30 days
Protocol: X-ray powder diffraction studies were performed on a Bruker D8 Advance ECO diffractometer with Cu K-alpha radiation and SSD160 detector. Approximately 5 mg of sample was gently compressed on the XRPD sample holder. The sample was then loaded into a Bruker D8-Discover diffractometer in transmission mode and analyzed using the experimental conditions shown below: XRPD measurement conditions
Sample stability was tested at 25° C. for […] on light. […] XRPD of samples were taken after 30 days to investigate any solid form change (any difractogram/pattern change).

[5] = Calcein AM cytotoxicity assay, G361; type: cell-based; settings: human, G361 cells (malignant melanoma); G361, 3-day Calcein-AM assay; read-out: Cytotoxic activity IC50
Source text: as §1, §2

[6] = Calcein AM cytotoxicity assay, HL60; type: cell-based; settings: human, HL-60 cells (promyelocytic leukaemia); HL60, 3-day Calcein-AM assay; read-out: Cytotoxic activity IC50
Source text: as §1, §2

[7] = test system: RPMI 8226 (multiple myeloma); assay: Calcein AM cytotoxicity assay, RPMI 8226; type: cell-based; settings: RPMI 8226, 3-day Calcein-AM assay; read-out: Cytotoxic activity IC50
Source text: as §1, §2

[8] = test system: CEM (T-lymphoblastic leukaemia); assay: Calcein AM cytotoxicity assay, CEM; type: cell-based; settings: 3-day Calcein-AM assay, read-out: Cytotoxic activity IC50
Source text: as §1, §2

[9] = test system: G361 (malignant melanoma); assay: Calcein AM cytotoxicity assay, G361; type: cell-based; settings: G361, 3-day Calcein-AM assay; read-out: Cytotoxic activity IC50
Source text: as §1, §2

[10] = test system: HL-60 (promyelocytic leukaemia); assay: Calcein AM cytotoxicity assay, HL60; type: cell-based; settings: HL60, 3-day Calcein-AM assay; read-out: Cytotoxic activity IC50
Source text: as §1, §2

Oc1ccc(CNc2ncnc3nc[nH]c23)cc1 [para-topolin mesylate, 6-(4-hydroxybenzylamino) purine (para-topolin) mesylate (methylsulphonate)]
IC50 at 72 h [1]: > 167 µM
Solubility [2]: ~1.2e+06 µM and ~407000 µg/mL
IC50 at 72 h [3]: > 167 µM
Solid-state stability (structure, color, XRPD pattern change) ([4]; listed as crystalline para-topolin mesylate salt): No structure nor color change
Solid-state stability (structure, color, XRPD pattern change) ([4]; listed as para-topolin mesylate crystalline salt): no structural pattern changes detected
IC50 at 72 h [5]: > 167 µM
IC50 at 72 h [6]: > 167 µM

Oc1ccc(CNc2ncnc3nc[nH]c23)cc1 [para-topolin, 6-(4-Hydroxybenzylamino) purine]
pIC50 [7]: < 3.78
pIC50 [8]: < 3.78
pIC50 [9]: < 3.78
pIC50 [10]: < 3.78
